# Target: T1, Aβ1-40 peptide (Homo sapiens, UniProt P05067)
# T1 construct: An Aβ1-40 peptide monomer stock solution was prepared by dissolving the peptide in dimethylsulfoxide
# Assay: Inhibition of aggregation of monomeric Aβ1-40 peptide stimulated by a seed of pre-formed sonicated Aβ1-40 amyloid fibrils (HPLC of residual monomer)
# Assay type: biochemical
# Conditions: 20 μM Aβ1-40 monomer, 50 μM test compound, 4 μM pre-formed sonicated Aβ1-40 fibrils, 2 h at 37° C., pH 7.4
# Method: The compounds disclosed in the present invention interfere with the aggregation of monomeric Aβ1-40 peptide stimulated by a seed of Aβ1-40 amyloid fibrils. The activity of the compounds was assessed according to the procedure reported below.
# An Aβ1-40 peptide monomer stock solution was prepared by dissolving the peptide in dimethylsulfoxide at a concentration of 33.33 mg/ml. The stock solution was further diluted 11.5 times with dimethylsulfoxide. This solution was then diluted with 10 mM phosphate buffer pH 7.4 containing 150 mM sodium chloride to prepare the test solution. To an eppendorf tube containing 47 μl of Aβ1-40 peptide monomer solution were added 3 μl of a 830 μM water solution of the test compound containing 66.4 μM, based on the Aβ1-40 monomer content, of pre-formed sonicated Aβ1-40 fibrils: the resulting solution was 20 μM in Aβ1-40 monomer, 50 μM in the test compound and contained 4 μM, based on the Aβ1-40 monomer content, of pre-formed sonicated Aβ1-40 fibrils. The aggregation was allowed to proceed for two hours at 37° C. The suspension was then centrifuged at 15000 rpm for 15 minutes at +4° C., the supernatant was collected and the Aβ1-40 monomer was quantitated by HPLC. The activity is expressed as the percent of inhibition of the aggregation of a 20 μM Aβ1-40 monomer solution stimulated by 4 μM, based on the Aβ1-40 monomer content, pre-formed sonicated Aβ1-40 fibrils.
# T1 sequence (P05067 672-711 limits assumed): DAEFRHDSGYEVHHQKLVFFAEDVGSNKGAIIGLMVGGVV
row,SMILES,% inhibition
1,"COc1cccc2c1C(=O)c1c(O)c3c(c(O)c1C2=O)CC(O)(C(=O)CN1CC=CCC1)CC3O (stereo not shown) [Compound 1a, 14-(1,2,3,6-tetrahydropyridin-1-yl)daunomycinone]",74.1%
2,"COc1cccc2c1C(=O)c1c(O)c3c(c(O)c1C2=O)CC(O)(C(O)CN1CC=CCC1)CC3 [Compound 1d, (13R)-7-deoxy-13-dihvdro-14-(1,2,3,6-tetrahydropyridin-1-yl)daunomycinone]",47.3%
3,"COc1cccc2c1C(=O)c1c(O)c3c(c(O)c1C2=O)CC(O)(C(=O)CN1CCOCC1)CC3 (stereo not shown) [Compound A17, 7-deoxy-14-(4-morpholinyl)-daunomycinone, reference compound]",11.4%
4,"COc1cccc2c1C(=O)c1c(O)c3c(c(O)c1C2=O)CC(O)(C(=O)CN1CC=CCC1)CC3N1CCOCC1 (stereo not shown) [Compound 1k, 7-deoxy-7-(4-morpholinyl) -14-(1,2,3,6-tetrahydropyridin-1-yl)daunomycinone]",52.1%
